Laboratory results from patent publication US11414416B1, “Compounds and uses thereof” (Foghorn Therapeutics Inc., priority 2019, dated 2022).

biological target: Nanoluciferase-BRD9 fusion protein (Homo sapiens (Human), UniProt Q9H8M2); test: SYO1 BRD9 NanoLuc degradation assay; format: cell-based; conditions: Table 5A; SYO-1 cells expressing 3×FLAG-NLuc-BRD9, 6 hours; read-out: SYO1 BRD9-NanoLuc degradation IC50
Method in brief: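 Degradation was read as loss of nanoluciferase signal (Nano-Glo) after 6 h compound exposure in a stable SYO-1 line carrying 3×FLAG-NLuc-BRD9 (8000 cells/well). Normalised between DMSO (high) and a 1 μM known BRD9 degrader (low).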

Sequence of Nanoluciferase-BRD9 fusion protein (Q9H8M2 whole entry, the tested form may be a part): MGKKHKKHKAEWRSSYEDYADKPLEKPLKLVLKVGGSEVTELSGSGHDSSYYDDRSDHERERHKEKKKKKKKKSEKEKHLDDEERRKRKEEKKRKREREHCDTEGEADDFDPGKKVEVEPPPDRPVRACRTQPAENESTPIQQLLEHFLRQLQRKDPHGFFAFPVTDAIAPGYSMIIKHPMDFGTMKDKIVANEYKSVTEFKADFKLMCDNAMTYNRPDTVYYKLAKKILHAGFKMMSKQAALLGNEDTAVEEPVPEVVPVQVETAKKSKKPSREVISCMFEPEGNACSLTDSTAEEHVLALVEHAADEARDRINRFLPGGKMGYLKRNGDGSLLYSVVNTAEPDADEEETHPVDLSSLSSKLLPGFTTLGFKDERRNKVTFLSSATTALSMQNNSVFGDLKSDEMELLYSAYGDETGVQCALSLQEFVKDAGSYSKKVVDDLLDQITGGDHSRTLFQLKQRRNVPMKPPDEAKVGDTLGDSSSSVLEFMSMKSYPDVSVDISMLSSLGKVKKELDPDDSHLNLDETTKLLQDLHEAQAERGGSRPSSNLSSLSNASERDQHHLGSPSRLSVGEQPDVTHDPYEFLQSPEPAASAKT

Row | DC50 [µM] | Compound
1 | > 1 | COc1cc(-c2cn(C)c(=O)c3cnccc23)cc(OC)c1CN1CCC2(CC1)CN(CCOc1ccc3c(c1)C(=O)N(C1CCC(=O)NC1=O)C3=O)CCO2 (centres unmarked) [Compound D49, 5-[2-(9-[[2,6-dimethoxy-4-(2-methyl-1-oxo-2,7-naphthyridin-4-yl)phenyl]methyl]-1-oxa-4,9-diazaspiro[5.5]undecan-4-yl)ethoxy]-2-(2,6-dioxopiperidin-3-yl)isoindole-1,3-dione]
2 | 0.1 to 1 | COc1cc(-c2cn(C)c(=O)c3cnccc23)cc(OC)c1CN1CC2(CN(CCOc3ccc4c(c3)C(=O)N(C3CCC(=O)NC3=O)C4=O)C2)C1 (centres unmarked) [Compound D43, 5-[2-(6-[[2,6-Dimethoxy-4-(2-methyl-1-oxo-2,7-naphthyridin-4-yl)phenyl]methyl]-2,6-diazaspiro[3.3]heptan-2-yl)ethoxy]-2-(2,6-dioxopiperidin-3-yl)isoindole-1,3-dione formic acid]

Row | Compound | DC50 [µM]
3 | COc1cc(-c2cn(C)c(=O)c3cnccc23)cc(OC)c1CN1CC(S(=O)(=O)NCCN2CCN(c3ccc4c(c3)C(=O)N(C3CCC(=O)NC3=O)C4=O)CC2)C1 (centres unmarked) [Compound D24, 1-[[2,6-dimethoxy-4-(2-methyl-1-oxo-2,7-naphthyridin-4-yl)phenyl]methyl]-N-(2-[4-[2-(2,6-dioxopiperidin-3-yl)-1,3-dioxoisoindol-5-yl]piperazin-1-yl]ethyl)azetidine-3-sulfonamide formic acid] | 0.01 to 0.1

same assay, conditions: Table 5B; SYO-1 cells expressing 3×FLAG-NLuc-BRD9, 6 hours; read-out: SYO1 BRD9-NanoLuc degradation IC50

Row | Compound | DC50 [µM]
4 | COc1cc(-c2cn(C)c(=O)c3cnccc23)cc(OC)c1CN1CCC(n2cc(COCCOc3ccc4c(c3)C(=O)N(C3CCC(=O)NC3=O)C4=O)nn2)CC1 (centres unmarked) [Compound D290] | < 0.01
5 | COc1cc(-c2cc(C)c(F)c3ccccc23)cc(OC)c1CN1CCC(CN2CCC3(CC2)CC(Oc2ccc4c(c2)C(=O)N(C2CCC(=O)NC2=O)C4=O)C3)CC1 (centres unmarked) [DD10] | 0.1 to 1
6 | COc1cc(-c2cc(C)c(=O)n(C)c2)cc(OC)c1CN1CCC(CCN2CCN(C3CCC(=O)NC3=O)C(=O)C2)CC1 (centres unmarked) [Compound D334] | > 1
7 | COc1cc(-c2cc(C)c(=O)n(C)c2)cc(OC)c1CN1CCC(n2cc([C@H](C)Oc3ccc4c(c3)C(=O)N(C3CCC(=O)NC3=O)C4=O)nn2)CC1 (some centres unmarked) [Compound D333] | < 0.01
8 | COc1cc(-c2cn(C)c(=O)c3cnccc23)cc(OC)c1CN1CC(n2cc(COC3CN(c4ccc5c(c4)C(=O)N(C4CCC(=O)NC4=O)C5=O)C3)nn2)C1 (centres unmarked) [Compound D301] | < 0.01
9 | COc1cc(-c2cn(C)c(=O)c3cnccc23)cc(OC)c1Cn1cc(COC2CN(c3ccc4c(c3)C(=O)N(C3CCC(=O)NC3=O)C4=O)C2)nn1 (centres unmarked) [Compound D271] | < 0.01
10 | COc1cc(-c2cn(C)c(=O)c(C)c2C)cc(OC)c1CN1CC(CN2CCC3(CC2)CN(c2ccc4c(c2)C(=O)N(C2CCC(=O)NC2=O)C4=O)C3)C1 (centres unmarked) [Compound D345] | < 0.01
11 | COc1cc(-c2cn(C)c(=O)c3cnccc23)cc(OC)c1CN1CCC2C(C1)CN2C(=O)CC#Cc1ccc2c(c1)C(=O)N(C1CCC(=O)NC1=O)C2=O (centres unmarked) [Compound D315] | < 0.01
12 | COc1cc(-c2cn(C)c(=O)c3cnccc23)cc(OC)c1CN1CC(n2cc(COc3ccc4c(c3)C(=O)N(C3CCC(=O)NC3=O)C4=O)nn2)C1 (centres unmarked) [Compound D297] | < 0.01
13 | COc1cc(-c2cc(C)c(=O)n(C)c2)cc(OC)c1CN1CCC2(C1)CN(c1ccc3c(c1)C(=O)N(C1CCC(=O)NC1=O)C3=O)C2 (centres unmarked) [Compound D337] | < 0.01

Now from value to molecule:

Row | DC50 [µM] | Compound
14 | < 0.01 | COc1cc(-c2cn(C)c(=O)c3cnccc23)cc(OC)c1CN(C)CCCCN1CCC2(CC1)CC(Oc1ccc3c(c1)C(=O)N(C1CCC(=O)NC1=O)C3=O)C2 (centres unmarked) [Compound D228]
15 | < 0.01 | COc1cc(-c2cn(C)c(=O)c3cnccc23)cc(OC)c1CN1CCC(n2cc(CCOc3ccc4c(c3)C(=O)N(C3CCC(=O)NC3=O)C4=O)nn2)CC1 (centres unmarked) [Compound D279]
16 | < 0.01 | COc1cc(-c2cn(C)c(=O)c3cnccc23)cc(OC)c1CN1CCC2(CC1)CN(C(=O)C#Cc1ccc3c(c1)C(=O)N(C1CCC(=O)NC1=O)C3=O)C2 (centres unmarked) [Compound D197]
17 | 0.1 to 1 | COc1cc(-c2cn(C)c(=O)c3cnccc23)cc(OC)c1CN(C)CCOCCn1cc(CN2CC(Oc3ccc4c(c3)C(=O)N(C3CCC(=O)NC3=O)C4=O)C2)nn1 (centres unmarked) [Compound D294]
18 | 0.1 to 1 | COc1cc(-c2cn(C)c(=O)c3cnccc23)cc(OC)c1CN1CC(CC(=O)NC2CCC23CN(c2ccc4c(c2)C(=O)N(C2CCC(=O)NC2=O)C4=O)C3)C1 (centres unmarked) [Compound D209]
19 | < 0.01 | COc1cc(-c2cn(C)c(=O)c3cnccc23)cc(OC)c1CN1CC2(CN(CCCC#Cc3ccc4c(c3)C(=O)N(C3CCC(=O)NC3=O)C4=O)C2)C1 (centres unmarked) [Compound D215]
20 | < 0.01 | COc1cc(-c2cn(C)c(=O)c3cnccc23)cc(OC)c1CN1CC2(CCN(C(=O)CC#Cc3ccc4c(c3)C(=O)N(C3CCC(=O)NC3=O)C4=O)CC2)C1 (centres unmarked) [Compound D312]
21 | 0.01 to 0.1 | COc1cc(-c2cn(C)c(=O)c3cnccc23)cc(OC)c1CN1CC2(CN(CC#Cc3ccc4c(c3)C(=O)N(C3CCC(=O)NC3=O)C4=O)C2)C1 (centres unmarked) [Compound D309]
22 | < 0.01 | COc1cc(-c2cn(C)c(=O)c3cnccc23)cc(OC)c1CN1CCC(n2cc(COc3ccc4c(c3)C(=O)N(C3CCC(=O)NC3=O)C4=O)cn2)CC1 (centres unmarked) [Compound D324]
23 | < 0.01 | COc1cc(-c2cn(C)c(=O)c3cnccc23)cc(OC)c1CN1CC(CC(=O)N2CCC3(CC2)CCN(c2ccc4c(c2)C(=O)N(C2CCC(=O)NC2=O)C4=O)C3)C1 (centres unmarked) [Compound D191]
24 | < 0.01 | COc1cc(-c2cn(C)c(=O)c3cnccc23)cc(OC)c1CN(C)CCCCN1CC2(CCC(Oc3ccc4c(c3)C(=O)N(C3CCC(=O)NC3=O)C4=O)C2)C1 (centres unmarked) [Compound D259]
25 | 0.01 to 0.1 | COc1cc(-c2cn(C)c(=O)c3cnccc23)cc(OC)c1CN1CC(CC(=O)N2CC3(C2)CN(c2ccc4c(c2)C(=O)N(C2CCC(=O)NC2=O)C4=O)C3)C1 (centres unmarked) [Compound D195]
26 | < 0.01 | COc1cc(-c2cn(C)c(=O)c3cnccc23)cc(OC)c1CN1CCC2(C1)CN(CC#Cc1ccc3c(c1)C(=O)N(C1CCC(=O)NC1=O)C3=O)C2 (centres unmarked) [Compound D268]
27 | < 0.01 | COc1cc(-c2cn(C)c(=O)c3cnccc23)cc(OC)c1CN(C)CCCCN1CC2(CC(Oc3ccc4c(c3)C(=O)N(C3CCC(=O)NC3=O)C4=O)C2)C1 (centres unmarked) [Compound D251]
28 | < 0.01 | COc1cc(-c2cn(C)c(=O)c3cnccc23)cc(OC)c1CN1CCC2C(C1)CN2CCCC#Cc1ccc2c(c1)C(=O)N(C1CCC(=O)NC1=O)C2=O (centres unmarked) [Compound D310]
29 | < 0.01 | COc1cc(-c2cn(C)c(=O)c3cnccc23)cc(OC)c1CN(C)C(=O)CCCCN1CCC2(CC(Oc3ccc4c(c3)C(=O)N(C3CCC(=O)NC3=O)C4=O)C2)C1 (centres unmarked) [Compound D263]
30 | 0.1 to 1 | COc1cc(-c2cn(C)c(=O)c3cnccc23)cc(OC)c1CN(C)CCCn1cc(CCOc2ccc3c(c2)C(=O)N(C2CCC(=O)NC2=O)C3=O)nn1 (centres unmarked) [Compound D283]
31 | 0.01 to 0.1 | COc1cc(-c2cn(C)c(=O)c3cnccc23)cc(OC)c1CN1CC2(CCN(C(=O)CC#Cc3ccc4c(c3)C(=O)N(C3CCC(=O)NC3=O)C4=O)C2)C1 (centres unmarked) [Compound D311]
32 | < 0.01 | COc1cc(-c2cn(C)c(=O)c3cnccc23)cc(OC)c1CN1CC(N2CCN(c3ccc4c(c3)C(=O)N(C3CCC(=O)NC3=O)C4=O)CC2)C1 (centres unmarked) [Compound D327]
33 | < 0.01 | COc1cc(-c2cn(C)c(=O)c3cnccc23)cc(OC)c1CN1CC(CC(=O)N2CCC3(CC2)CC(Oc2ccc4c(c2)C(=O)N(C2CCC(=O)NC2=O)C4=O)C3)C1 (centres unmarked) [Compound D184]

same assay, conditions: Table 5C; SYO-1 cells expressing 3×FLAG-NLuc-BRD9, 6 hours; read-out: SYO1 BRD9-NanoLuc degradation IC50

Row | Compound | DC50 [µM]
34 | COc1cc(-c2cc(C)c(=O)n(C)c2C)cc(OC)c1CN1CCN(c2ccc3c(c2)C(=O)N(C2CCC(=O)NC2=O)C3)CC1 (centres unmarked) [Compound D427] | < 0.01
35 | COc1cc(-c2cc(C)c(=O)n(C)c2)cc(OC)c1CN1CC(C#Cc2ccc3c(c2)CN(C2CCC(=O)NC2=O)C3=O)C1 (centres unmarked) [Compound D440] | < 0.01
36 | Cn1ccc2oc(C(=O)NC3CCN(c4ccc5c(c4)C(=O)N(C4CCC(=O)NC4=O)C5)CC3)cc2c1=O (centres unmarked) [DD16] | 0.01 to 0.1
37 | COc1cc(-c2cc(C)c(=O)n(C)c2)cc(OC)c1CN1CCN(c2ccc3c(c2)C(=O)N(C2CCC(=O)NC2=O)C3)CC1 (centres unmarked) [Compound D452] | < 0.01
38 | C/C=C/Cn1cc(-c2cc(OC)c(CN3CCC4(CC3)CN(c3ccc5c(c3)C(=O)N(C3CCC(=O)NC3=O)C5)C4)c(OC)c2)c2cc(C)[nH]c2c1=O (centres unmarked) [Compound D467] | > 1
39 | COc1cc(C(=O)N2CCC3(CC2)CN(c2ccc4c(c2)C(=O)N(C2CCC(=O)NC2=O)C4)C3)cc(-c2cn(C)c(=O)c3cnccc23)c1 (centres unmarked) [Compound D380] | 0.01 to 0.1
40 | COc1cc(-c2nc(N)nc3[nH]cnc23)cc(OC)c1CN1CCC2(CC1)CN(c1ccc3c(c1)C(=O)N(C1CCC(=O)NC1=O)C3)C2 (centres unmarked) [DD15] | 0.01 to 0.1
41 | COc1cc(-c2cc(C)c(=O)n(C)c2C)cc(OC)c1CN1CCN(c2ccc3c(c2)CN(C2CCC(=O)NC2=O)C3=O)CC1 (centres unmarked) [Compound D423] | < 0.01
42 | COc1cc(-c2cc(C)c(=O)n(C)c2)cc(OC)c1CN1CC(/C=C/c2ccc3c(c2)C(=O)N(C2CCC(=O)NC2=O)C3)C1 (centres unmarked) [Compound D457] | < 0.01
43 | COc1cc(-c2cn(C)c(=O)c(C)c2C)cc(OC)c1CN1CCC2(C1)CN(c1ccc3c(c1)C(=O)N(C1CCC(=O)NC1=O)C3=O)C2 (centres unmarked) [Compound D430] | < 0.01
44 | COc1cc(-c2cn(C)c(=O)c3[nH]cc(C)c23)cc(OC)c1CN1CCC2(CC1)CN(c1ccc3c(c1)C(=O)N(C1CCC(=O)NC1=O)C3)C2 (centres unmarked) [Compound D426] | < 0.01
45 | COc1cc(-c2cc(C)c(=O)n(C)c2C)cc(OC)c1CN1CCC(CN2CCC3(CC2)CN(c2ccc4c(c2)C(=O)N(C2CCC(=O)NC2=O)C4)C3)CC1 (centres unmarked) [Compound D397] | < 0.01

The remaining lines, values ahead:

Row | DC50 [µM] | Compound
46 | < 0.01 | COc1cc(-c2cn(C)c(=O)c3cnccc23)cc(OC)c1CN1CCC2(CC1)CN(c1ccc3c(c1)CN(C1CCC(=O)NC1=O)C3=O)C2 (centres unmarked) [Compound D374]
47 | < 0.01 | COc1cc(-c2cn(C)c(=O)c3cnccc23)cc(OC)c1CN1CC(Oc2ccc3c(c2)C(=O)N(C2CCC(=O)NC2=O)C3=O)C1 (centres unmarked) [Compound D372]
